Earlier results in US20220082565A1, “THE FGF19-CHOLESTYRAMINE (F-CME) TEST AS A TWO-STAGE METHOD FOR ROUTINE CANCER SCREENING” (UNIVERSITY OF CENTRAL FLORIDA RESEARCH FOUNDATION, INC., priority 2020, published 2022).

Tested on: FGF19 transcripts
Conditions: physiological concentrations of bile acids, explants of ileal mucosa

CC(CCC(=O)NCC(=O)O)C1CCC2C3C(O)CC4CC(O)CCC4(C)C3CCC12C (centres unmarked) [glycochenodeoxycholic acid]
stimulation of human FGF19 transcripts: approximately 300 fold

C[C@H](CCC(=O)O)[C@H]1CC[C@H]2[C@@H]3[C@H](O)C[C@@H]4C[C@H](O)CC[C@]4(C)[C@H]3CC[C@]12C [chenodeoxycholic acid]
stimulation of human FGF19 transcripts: approximately 300 fold
